In patent US20230107642A1 (Erasca, Inc., priority 2020, published 2023):

Target: T1, Cys12 of the KRAS 4B G12C protein (Homo sapiens, UniProt P01116, G12C)
T1 construct: This protein contained 188 amino acids in total, including an N-terminal 6-Histidine tag; made in house; host or cells: E. coli BL21
Assay: In vitro covalent adduct formation (CAF) assay, LC-MS intact mass
Format: binding
Conditions: 10 uM compound, 60 min
Protocol: This Example provides a protocol for assessing covalent adduct formation (CAF) between the compounds of the present application and KRAS.
In vitro covalent adduct formation assay: Covalent adduct formation (CAF) reactions between Cys12 of the KRAS 4B G12C protein and some of the compounds of Tables 1 to 4 were measured in vitro using liquid chromatography-mass spectrometry (LC-MS).
Recombinant Human KRAS 4B protein containing the G12C mutation was used in compound screening experiments. This protein contained 188 amino acids in total, including an N-terminal 6-Histidine tag, followed by a Tobacco Etch Virus (TEV) tag, followed by residues 1-169 of the native KRAS 4B sequence. The exact mass of the protein was 21,310 Da as determined by mass spectrometry. The full amino acid sequence is shown below: […]
The recombinant protein was expressed in E. coli BL21 cells and purified using affinity chromatography via a Ni-NTA column. Protein stocks were nucleotide-exchanged to >95% GDP, concentrated to 4 mg/mL, and stored at −80° C. in storage buffer (50 mM HEPES pH 7.4, 50 mM NaCl, 5 mM MgCl2, 1 mM DTT). Pure KRAS 4B G12C protein was diluted to a concentration of 5 μM in Tris Buffered Saline, pH 7.4. The compounds were dissolved in DMSO and added to the diluted protein to make a 10 μM concentration. The total DMSO concentration in the reaction was 4%. The reaction was mixed by pipetting and incubated at 22° C. for one hour. Aliquots of the reaction were taken over time and diluted 2:1 in 0.1% formic acid. The intact mass of the protein samples was measured by LC-MS using a QExactive+ mass spectrometer (Thermo Scientific). An amount of 500 ng total protein was injected onto a C8 reverse phase column, eluted with a seven-minute gradient of 30%-90% acetonitrile/0.1% formic acid, and analyzed for intact mass by the mass spectrometer. Adducts identified were confirmed to be within 1 Dalton of the expected mass, and the relative ratios of free:adduct protein were used to quantify the percentage of protein bound by the compound. CAF reactions were run in duplicate, with a typical variability of ±5%.

| Compound | % CAF 10 uM @ 60 min |
| --- | --- |
| C=CC(=O)N1[C@H](C)CN(c2nc(=O)n3c4c(c(-c5ccc(F)cc5F)c(C(F)(F)F)cc24)SC[C@@H]3CN2C[C@@H]3C[C@H]2CO3)C[C@@H]1C (atropisomer, axis not shown) [Example 1300, (3S,10S)-3-(((1S,4S)-2-oxa-5-azabicyclo[2.2.1]heptan-5-yl)methyl)-7-((3S,5R)-4-acryloyl-3,5-dimethylpiperazin-1-yl)-10-(2,4-difluorophenyl)-9-(trifluoromethyl)-2,3-dihydro-5H-[1,4]thiazino[2,3,4-ij]quinazolin-5-one] | 90.8% |
| C=CC(=O)N1[C@H](C)CN(c2nc(=O)n3c4c(c(-c5ccc(F)cc5F)c(C(F)(F)F)cc24)SC[C@@H]3CN2C[C@@H]3C[C@H]2CO3)C[C@@H]1C (atropisomer, axis not shown) [Example 1301, (3S)-3-((1S,4S)-2-oxa-5-azabicyclo[2.2.1]heptan-5-ylmethyl)-7-((3S,5R)-4-acryloyl-3,5-dimethylpiperazin-1-yl)-10-(2,4-difluorophenyl)-9-(trifluoromethyl)-2H-[1,4]thiazino[2,3,4-ij]quinazolin-5(3H)-one] | 96.4% |
| C=CC(=O)N1CCN(c2nc(=O)n3c4c(c(-c5ccc(F)cc5F)c(C(F)(F)F)cc24)SC[C@@H]3CN2C[C@@H]3C[C@H]2CO3)CC1 (atropisomer, axis not shown) [Example 1305, (3S,10R)-3-(((1S,4S)-2-oxa-5-azabicyclo[2.2.1]heptan-5-yl)methyl)-7-(4-acryloylpiperazin-1-yl)-10-(2,4-difluorophenyl)-9-(trifluoromethyl)-2,3-dihydro-5H-[1,4]thiazino[2,3,4-ij]quinazolin-5-one] | 97.2% |
| C=CC(=O)N1CCN(c2nc(=O)n3c4c(c(-c5ccc(F)cc5F)c(C(F)(F)F)cc24)SC[C@@H]3CN2C[C@@H]3C[C@H]2CO3)CC1 (atropisomer, axis not shown) [Example 1306, (3S,10S)-3-(((1S,4S)-2-oxa-5-azabicyclo[2.2.1]heptan-5-yl)methyl)-7-(4-acryloylpiperazin-1-yl)-10-(2,4-difluorophenyl)-9-(trifluoromethyl)-2,3-dihydro-5H-[1,4]thiazino[2,3,4-ij]quinazolin-5-one] | 96.8% |
| C=CC(=O)N1C[C@H](C)N(c2nc(=O)n3c4c(c(-c5cc(Cl)c(F)cc5F)c(C(F)(F)F)cc24)SC[C@@H]3CN2CCC3(CC2)COC3)C[C@H]1C (atropisomer, axis not shown) [Example 1312, (3S,10S)-3-((2-oxa-7-azaspiro[3.5]nonan-7-yl)methyl)-7-((2S,5R)-4-acryloyl-2,5-dimethylpiperazin-1-yl)-10-(5-chloro-2,4-difluorophenyl)-9-(trifluoromethyl)-2,3-dihydro-5H-[1,4]thiazino[2,3,4-ij]quinazolin-5-one] | 72% |
| C=CC(=O)N1C[C@H](C)N(c2nc(=O)n3c4c(c(-c5cc(Cl)c(F)cc5F)c(C(F)(F)F)cc24)SC[C@@H]3CN2CCC3(CC2)COC3)C[C@H]1C (atropisomer, axis not shown) [Example 1313, (3S,10R)-3-((2-oxa-7-azaspiro[3.5]nonan-7-yl)methyl)-7-((2S,5R)-4-acryloyl-2,5-dimethylpiperazin-1-yl)-10-(5-chloro-2,4-difluorophenyl)-9-(trifluoromethyl)-2,3-dihydro-5H-[1,4]thiazino[2,3,4-ij]quinazolin-5-one] | 96.4% |
| C=CC(=O)N1C[C@H](C)N(c2nc(=O)n3c4c(c(-c5ccc(F)cc5F)c(C(F)(F)F)cc24)SC[C@@H]3CN2CCC3(CC2)COC3)C[C@H]1C (atropisomer, axis not shown) [Example 1314, (3S,10S)-3-((2-oxa-7-azaspiro[3.5]nonan-7-yl)methyl)-7-((2S,5R)-4-acryloyl-2,5-dimethylpiperazin-1-yl)-10-(2,4-difluorophenyl)-9-(trifluoromethyl)-2,3-dihydro-5H-[1,4]thiazino[2,3,4-ij]quinazolin-5-one] | 95.8% |
| C=CC(=O)N1C[C@H](C)N(c2nc(=O)n3c4c(c(-c5ccc(F)cc5F)c(C(F)(F)F)cc24)SC[C@@H]3CN2CCC3(CC2)COC3)C[C@H]1C (atropisomer, axis not shown) [Example 1315, (3S,10R)-3-((2-oxa-7-azaspiro[3.5]nonan-7-yl)methyl)-7-((2S,5R)-4-acryloyl-2,5-dimethylpiperazin-1-yl)-10-(2,4-difluorophenyl)-9-(trifluoromethyl)-2,3-dihydro-5H-[1,4]thiazino[2,3,4-ij]quinazolin-5-one] | 96.3% |
| C=CC(=O)N1CCN(c2nc(=O)n3c4c(c(-c5ccc(F)cc5F)c(C(F)(F)F)cc24)SC[C@@H]3CN2CCN(CC)CC2)CC1 (atropisomer, axis not shown) [Example 1317, (3S,10S)-7-(4-acryloylpiperazin-1-yl)-10-(2,4-difluorophenyl)-3-((4-ethylpiperazin-1-yl)methyl)-9-(trifluoromethyl)-2,3-dihydro-5H-[1,4]thiazino[2,3,4-ij]quinazolin-5-one] | 98.3% |
| C=CC(=O)N1CCN(c2nc(=O)n3c4c(c(-c5ccc(F)cc5F)c(C(F)(F)F)cc24)SC[C@@H]3CN2CCN(CC)CC2)CC1 (atropisomer, axis not shown) [Example 1318, (3S,10R)-7-(4-acryloylpiperazin-1-yl)-10-(2,4-difluorophenyl)-3-((4-ethylpiperazin-1-yl)methyl)-9-(trifluoromethyl)-2,3-dihydro-5H-[1,4]thiazino[2,3,4-ij]quinazolin-5-one] | 99.6% |
| C=CC(=O)N1[C@H](C)CN(c2nc(=O)n3c4c(c(-c5ccc(F)cc5F)c(C(F)(F)F)cc24)SC[C@@H]3COCOC)C[C@@H]1C (atropisomer, axis not shown) [Example 1319, (3S,10S)-7-((3S,5R)-4-acryloyl-3,5-dimethylpiperazin-1-yl)-10-(2,4-difluorophenyl)-3-((methoxymethoxy)methyl)-9-(trifluoromethyl)-2,3-dihydro-5H-[1,4]thiazino[2,3,4-ij]quinazolin-5-one] | 96.3% |

Same assay, conditions: 10 uM compound, 60 min incubation

| Compound | % CAF 10 uM @ 60 min |
| --- | --- |
| C=CC(=O)N1[C@H](C)CN(c2nc(=O)n3c4c(c(-c5cc(Cl)c(F)cc5F)c(C(F)(F)F)cc24)SC[C@@H](N2CCCC2)C3)C[C@@H]1C (atropisomer, axis not shown) [Example 1137, (3S,11R)-8-((3S,5R)-4-acryloyl-3,5-dimethylpiperazin-1-yl)-11-(5-chloro-2,4-difluorophenyl)-3-(pyrrolidin-1-yl)-10-(trifluoromethyl)-3,4-dihydro-2H,6H-[1,4]thiazepino [2,3,4-ij]quinazolin-6-one] | 83.4% |
| C=CC(=O)N1[C@H](C)CN(c2nc(=O)n3c4c(c(-c5cc(Cl)c(F)cc5F)c(C(F)(F)F)cc24)SC[C@@H](N2CCCC2)C3)C[C@@H]1C (atropisomer, axis not shown) [Example 1138, (3S,11S)-8-((3S,5R)-4-acryloyl-3,5-dimethylpiperazin-1-yl)-11-(5-chloro-2,4-difluorophenyl)-3-(pyrrolidin-1-yl)-10-(trifluoromethyl)-3,4-dihydro-2H,6H-[1,4]thiazepino [2,3,4-ij]quinazolin-6-one] | 50.5% |
